Assay results reported in patent publication US20250320224A1 (DOMAIN THERAPEUTICS, priority 2022, published 2025).

These molecules were tested against T1, human PAR-2 (hPAR-2) receptor (Homo sapiens, UniProt P55085) (assay: In vitro human PAR-2 functional antagonist activity using calcium assays). Details: hPAR-2 endogenously expressed in HEK-293 cells; stimulated by 2-Furoyl-LIGRLO-NH2 peptide; Fluo4AM intracellular calcium, FLIPR Tetra.
T1 construct: expressed in HEK-293 cells in an endogenous manner; endogenous in cells; host or cells: HEK-293
T1 sequence (P55085 26-397): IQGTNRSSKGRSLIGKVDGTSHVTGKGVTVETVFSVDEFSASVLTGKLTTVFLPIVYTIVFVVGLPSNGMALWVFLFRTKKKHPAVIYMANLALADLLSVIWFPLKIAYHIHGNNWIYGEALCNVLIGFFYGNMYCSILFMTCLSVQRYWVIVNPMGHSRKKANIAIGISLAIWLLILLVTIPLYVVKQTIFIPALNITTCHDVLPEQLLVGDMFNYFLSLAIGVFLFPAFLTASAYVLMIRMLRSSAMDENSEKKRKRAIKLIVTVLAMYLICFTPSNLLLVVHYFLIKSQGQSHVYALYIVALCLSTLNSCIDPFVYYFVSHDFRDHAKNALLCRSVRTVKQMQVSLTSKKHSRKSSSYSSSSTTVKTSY
Type: cell-based
How it was run: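 HEK-293 cells with endogenous hPAR-2 were loaded with Fluo4AM and read for intracellular Ca2+ on FLIPR. After 10 min with compound alone, cells were stimulated with 2-Furoyl-LIGRLO-NH2 at the concentration giving 80% of maximal response. Inhibition was then recorded over 5 min relative to buffer and agonist-only signals.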
`CC(C)(O)CNC(=O)c1ccc2c(n1)C(C)(C)CN2c1ccc(Cl)c(F)c1` [Example 52, 1-(4-chloro-3-fluorophenyl)-N-(2-hydroxy-2-methylpropyl)-3,3-dimethyl-2,3-dihydro-1H-pyrrolo[3,2-b]pyridine-5-carboxamide] gave an IC50 of over 10000 nM.
`CC1(C)CN(c2ccc(Cl)c(F)c2)c2ccc(C(=O)N3[C@@H]4CC[C@H]3CC(CC(=O)O)C4)nc21` (mixture of isomers) [Example 130, 2-((1R,5S)-8-(1-(4-chloro-3-fluorophenyl)-3,3-dimethyl-2,3-dihydro-1H-pyrrolo[3,2-b]pyridine-5-carbonyl)-8-azabicyclo[3.2.1]octan-3-yl)acetic acid] showed an IC50 of 500 to 10000 nM.
Work on `CC1(C)C(=O)NCCN1C(=O)c1ccc2c(n1)C1(CCC1)CN2c1ccc(Cl)c(F)c1` [Example 126, 4-(1′-(4-chloro-3-fluorophenyl)-1′,2′-dihydrospiro[cyclobutane-1,3′-pyrrolo[3,2-b]pyridine]-5′-carbonyl)-3,3-dimethylpiperazin-2-one] yielded an IC50 of under 500 nM.
`Cc1cc(N2CCN(C(=O)c3ccc4c(n3)C(C)(C)CN4c3ccc(C(F)(F)F)c(F)c3)C(C)(C)C2)nc(C)c1C(=O)O` [Example 275, 6-(4-(1-(3-fluoro-4-(trifluoromethyl)phenyl)-3,3-dimethyl-2,3-dihydro-1H-pyrrolo[3,2-b]pyridine-5-carbonyl)-3,3-dimethylpiperazin-1-yl)-2,4-dimethylnicotinic acid] showed an IC50 of under 500 nM.
In the case of `CC1(C)CN(c2ccc(Cl)c(F)c2)c2ccc(C(=O)N3CCC4(CC3)CNC(=O)C4)nc21` [Example 76, 8-(1-(4-chloro-3-fluorophenyl)-3,3-dimethyl-2,3-dihydro-1H-pyrrolo[3,2-b]pyridine-5-carbonyl)-2,8-diazaspiro[4.5]decan-3-one], the IC50 is reported as 500 to 10000 nM.
In the case of `CC1(C)C(=O)NCCN1C(=O)c1ccc2c(n1)C1(CCCC1)CN2c1ccc(Cl)c(F)c1` [Example 3, 4-(1′-(4-chloro-3-fluorophenyl)-1′,2′-dihydrospiro[cyclopentane-1,3′-pyrrolo[3,2-b]pyridine]-5′-carbonyl)-3,3-dimethylpiperazin-2-one], the IC50 is reported as under 500 nM.
Work on `CC1(C)CN(c2ccc(Cl)c(F)c2)c2ccc(C(=O)N3CCCC(Nc4ccc(C(=O)O)cn4)C3)nc21` (stereo not shown) [Example 109, 6-((1-(1-(4-chloro-3-fluorophenyl)-3,3-dimethyl-2,3-dihydro-1H-pyrrolo[3,2-b]pyridine-5-carbonyl)piperidin-3-yl)amino)nicotinic acid] yielded an IC50 of over 10000 nM.
`CC1(C)CN(c2ccc(Cl)c(F)c2)c2ccc(C(=O)N3CCNC(=O)CC3(C)C)nc21` [Example 74, 1-(1-(4-chloro-3-fluorophenyl)-3,3-dimethyl-2,3-dihydro-1H-pyrrolo[3,2-b]pyridine-5-carbonyl)-7,7-dimethyl-1,4-diazepan-5-one] was tested, and the IC50 was under 500 nM.
`CC1(C)CN(c2ccc(Cl)c(F)c2)c2ccc(C(=O)N3C[C@@H]4[C@@H](CC(=O)O)[C@@H]4C3)nc21` [Example 31, 2-((1R,5S,6S)-3-(1-(4-chloro-3-fluorophenyl)-3,3-dimethyl-2,3-dihydro-1H-pyrrolo[3,2-b]pyridine-5-carbonyl)-3-azabicyclo[3.1.0]hexan-6-yl)acetic acid] showed an IC50 of under 500 nM.
`CC1(C)CN(c2ccc(Cl)c(F)c2)c2ccc(C(=O)N3CCNC(=O)C3(C)C)nc21` [Example 18, 4-(1-(4-chloro-3-fluorophenyl)-3,3-dimethyl-2,3-dihydro-1H-pyrrolo[3,2-b]pyridine-5-carbonyl)-3,3-dimethylpiperazin-2-one] was tested, and the IC50 was under 500 nM.
`Cc1cc(N2CCN(C(=O)c3ccc4c(n3)C3(CC(C)C3)CN4c3ccc(Cl)c(F)c3)C(C)(C)C2)nc(C)c1C(=O)O` (single isomer, unassigned) [Example 156, 6-(4-(1′-(4-chloro-3-fluorophenyl)-3-methyl-1′,2′-dihydrospiro[cyclobutane-1,3′-pyrrolo[3,2-b]pyridine]-5′-carbonyl)-3,3-dimethylpiperazin-1-yl)-2,4-dimethylnicotinic acid] gave an IC50 of under 500 nM.
Work on `CC1(C)CN(C2CCCC2)c2ccc(C(=O)N3CCN(c4ccc(CC(=O)O)cn4)CC3(C)C)nc21` [Example 167, 2-(6-(4-(1-cyclopentyl-3,3-dimethyl-2,3-dihydro-1H-pyrrolo[3,2-b]pyridine-5-carbonyl)-3,3-dimethylpiperazin-1-yl)pyridin-3-yl)acetic acid] yielded an IC50 of 500 to 10000 nM.
Work on `CC1(C)C(=O)NCCN1C(=O)c1ccc2c(n1)C1(CC1)CN2c1ccc(Cl)c(F)c1` [Example 57, 4-(1′-(4-chloro-3-fluorophenyl)-1′,2′-dihydrospiro[cyclopropane-1,3′-pyrrolo[3,2-b]pyridine]-5′-carbonyl)-3,3-dimethylpiperazin-2-one] yielded an IC50 of under 500 nM.
In the case of `CC1(C)CN(c2ccc(Cl)c(F)c2)c2ccc(C(=O)N3CCN(c4cc(C(=O)O)ccn4)CC3(C)C)nc21` [Example 105, 2-(4-(1-(4-chloro-3-fluorophenyl)-3,3-dimethyl-2,3-dihydro-1H-pyrrolo[3,2-b]pyridine-5-carbonyl)-3,3-dimethylpiperazin-1-yl)isonicotinic acid], the IC50 is reported as under 500 nM.
Work on `Cc1cc(N2CCN(C(=O)c3cnc4c(n3)C3(CCCC3)CN4c3ccc(F)c(F)c3)C(C)(C)C2)nc(C)c1C(=O)O` [Example 223, 6-(4-(5′-(3,4-difluorophenyl)-5′,6′-dihydrospiro[cyclopentane-1,7′-pyrrolo[2,3-b]pyrazine]-2′-carbonyl)-3,3-dimethylpiperazin-1-yl)-2,4-dimethylnicotinic acid] yielded an IC50 of under 500 nM.
With `CC1(C)CN(c2ccc(Cl)c(F)c2)c2ccc(C(=O)N3CCN(c4cnccc4C(=O)O)CC3(C)C)nc21` [Example 107, 3-(4-(1-(4-chloro-3-fluorophenyl)-3,3-dimethyl-2,3-dihydro-1H-pyrrolo[3,2-b]pyridine-5-carbonyl)-3,3-dimethylpiperazin-1-yl)isonicotinic acid] the IC50 was 500 to 10000 nM.
For `Cc1ccc(N2CCN(C(=O)c3ccc4c(n3)C(C)(C)CN4c3ccc(Cl)c(F)c3)C(C)(C)C2)nc1C(=O)O` [Example 140, 6-(4-(1-(4-chloro-3-fluorophenyl)-3,3-dimethyl-2,3-dihydro-1H-pyrrolo[3,2-b]pyridine-5-carbonyl)-3,3-dimethylpiperazin-1-yl)-3-methylpicolinic acid], the IC50 was under 500 nM.
`Cc1nc(N2CCN(C(=O)c3ccc4c(n3)C(C)(C)CN4c3ccc(Cl)c(F)c3)C(C)(C)C2)sc1CC(=O)O` [Example 71, 2-(2-(4-(1-(4-chloro-3-fluorophenyl)-3,3-dimethyl-2,3-dihydro-1H-pyrrolo[3,2-b]pyridine-5-carbonyl)-3,3-dimethylpiperazin-1-yl)-4-methylthiazol-5-yl)acetic acid] gave an IC50 of under 500 nM.
Work on `CC1(C)CN(c2ccc(Cl)c(F)c2)c2ccc(C(=O)N3CCC(C(=O)O)CC3)nc21` [Example 33, 1-(1-(4-chloro-3-fluorophenyl)-3,3-dimethyl-2,3-dihydro-1H-pyrrolo[3,2-b]pyridine-5-carbonyl)piperidine-4-carboxylic acid] yielded an IC50 of 500 to 10000 nM.
With `CC1(C)CC2(CN(c3ccc(F)c(F)c3)c3ncc(C(=O)N4CCNC(=O)C4(C)C)nc32)C1` [Example 282, 4-(5′-(3,4-difluorophenyl)-3,3-dimethyl-5′,6′-dihydrospiro[cyclobutane-1,7′-pyrrolo[2,3-b]pyrazine]-2′-carbonyl)-3,3-dimethylpiperazin-2-one] the IC50 was under 500 nM.
With `CC1(C)CN(c2ccc(CC(=O)O)cn2)CCN1C(=O)c1cnc2c(n1)C1(CCCC1)CN2c1ccc(F)c(F)c1` [Example 229, 2-(6-(4-(5′-(3,4-difluorophenyl)-5′,6′-dihydrospiro[cyclopentane-1,7′-pyrrolo[2,3-b]pyrazine]-2′-carbonyl)-3,3-dimethylpiperazin-1-yl)pyridin-3-yl)acetic acid] the IC50 was under 500 nM.
`Cc1cc(N2CCN(C(=O)c3ccc4c(n3)C(C)(C)CN4c3cccc(F)c3)C(C)(C)C2)nc(C)c1C(=O)O` [Example 17, 6-(4-(1-(3-fluorophenyl)-3,3-dimethyl-2,3-dihydro-1H-pyrrolo[3,2-b]pyridine-5-carbonyl)-3,3-dimethylpiperazin-1-yl)-2,4-dimethylnicotinic acid] showed an IC50 of under 500 nM.
For `CC1(C)CN(c2ccc(Cl)c(F)c2)c2cc(O)c(C(=O)N3CCN(c4ccc(CC(=O)O)cn4)CC3(C)C)nc21` [Example 258, 2-(6-(4-(1-(4-chloro-3-fluorophenyl)-6-hydroxy-3,3-dimethyl-2,3-dihydro-1H-pyrrolo[3,2-b]pyridine-5-carbonyl)-3,3-dimethylpiperazin-1-yl)pyridin-3-yl)acetic acid], the IC50 was 500 to 10000 nM.
`CC(=O)N1CCN(C(=O)c2ccc3c(n2)C(C)(C)CN3c2ccc(Cl)c(F)c2)C(C)(C)C1` [Example 24, 1-(4-(1-(4-chloro-3-fluorophenyl)-3,3-dimethyl-2,3-dihydro-1H-pyrrolo[3,2-b]pyridine-5-carbonyl)-3,3-dimethylpiperazin-1-yl)ethan-1-one] was tested, and the IC50 was 500 to 10000 nM.
For `COCC1CC2(C1)CN(c1ccc(Cl)c(F)c1)c1ccc(C(=O)N3CCN(c4cc(C)c(C(=O)O)c(C)n4)CC3(C)C)nc12` (stereo not shown) [Example 225, 6-(4-(1′-(4-chloro-3-fluorophenyl)-3-(methoxymethyl)-1′,2′-dihydrospiro[cyclobutane-1,3′-pyrrolo[3,2-b]pyridine]-5′-carbonyl)-3,3-dimethylpiperazin-1-yl)-2,4-dimethylnicotinic acid], the IC50 was under 500 nM.
